Measured values: ChEMBL document CHEMBL1122576 (J Med Chem, 1984)

Columns and labels:
Rattus norvegicus [1] = experiment: Dose that decreased galactitol accumulation by 50% in the sciatic nerve in the galactosemic rat model after administration for 4 days in the diet; assay type: functional
Rattus norvegicus [2] = experiment: Dose that decreased sorbitol accumulation by 50% in the sciatic nerve in the galactosemic rat model after administration for 3 weeks in the diet; assay type: functional
[3] = molecular target: Aldo-keto reductase family 1 member B1 (Bos taurus, UniProt P16116); experiment: Inhibition of bovine lens aldose reductase with DL-glyceraldehyde as substrate
Rattus norvegicus [4] = experiment: Dose that decreased galactitol accumulation by 50% in the sciatic nerve in the galactosemic rat model after administration for 4 days in the diet; 7.3+/-2.3 mg/(kg day); assay type: functional
Rattus norvegicus [5] = experiment: Dose that decreased sorbitol accumulation by 50% in the sciatic nerve in the galactosemic rat model after administration for 3 weeks in the diet; 4.8+/- 2.4 mg/(kg day); assay type: functional

Structure (SMILES) | Dose (Rattus norvegicus [1]) [mg/kg/day] | Dose (Rattus norvegicus [2]) [mg/kg/day] | IC50 [3] [nM] | Dose (Rattus norvegicus [4]) [mg/kg/day] | Dose (Rattus norvegicus [5]) [mg/kg/day]
O=C(O)CN1C(=O)c2cccc3cccc(c23)C1=O [ALRESTATIN] | ~900 | ~1000 | 2700 |  | 
COc1ccc2c(C(=S)N(C)CC(=O)O)cccc2c1C(F)(F)F [TOLRESTAT] |  |  |  | 7.3 | 4.8
